Data taken from publication PMC12163657 (ACS Omega, 2025).

Test: Single-dose pharmacokinetics, dog
Type: in vivo
Conditions: Beagle, serum, 10 mg/kg

Question: For `CCCN1CC(Oc2ccc([C@@H]3c4[nH]c5ccccc5c4C[C@@H](C)N3CC(C)(C)F)cc2)C1` [compound 21, (1R,3R)-2-(2-Fluoro-2-methylpropyl)-3-methyl-1-(4-((1-propylazetidin-3-yl)oxy)phenyl)-2,3,4,9-tetrahydro-1H-pyrido[3,4-b]indole], which AUC (iv) is on record?
Answer: 41300 ng·h/mL

Question: And the Cmax (iv)?
Answer: 4060 ng/mL

Question: And the Vd (iv)?
Answer: 16 L/kg

Question: What about the clearance (iv) of the same molecule?
Answer: 3.33 mL/min/kg

Question: What about the half-life (iv) of the same molecule?
Answer: 63 h

Question: What about the AUC (po) of the same molecule?
Answer: 33700 ng·h/mL

Question: What about the Cmax (po) of the same molecule?
Answer: 1760 ng/mL

Question: What about the Tmax (po) of the same molecule?
Answer: 1.5 h

Question: And the bioavailability (po)?
Answer: 89%

Question: What about the half-life (po) of the same molecule?
Answer: 106 h
